Experimental data as given in the NIST ThermoML archive (doi:10.1016/j.jct.2017.07.013).
± gives the expanded uncertainty stated by the source.

Legend:
[1] = 101.3 kPa, Liquid; for speed of sound: Frequency=3 MHz, Single path-length method; for mass density: Vibrating tube method
[2] = refractive index (Na D-line) (dimensionless); conditions: 101.3 kPa, Liquid, Standard Abbe refractometry
[3] = xn = mol fraction of the nth substance listed; conditions: 101.3 kPa, Liquid, x2 = 0; for speed of sound: Frequency=3 MHz, Single path-length method; for mass density: Vibrating tube method
[4] = refractive index (Na D-line) (dimensionless); xn = mol fraction of the nth substance listed; conditions: 101.3 kPa, Liquid, Standard Abbe refractometry, x2 = 0

| Structure (SMILES) | speed of sound ([1]; 303.15 K) | mass density ([1]; 303.15 K) | speed of sound ([1]; 308.15 K) | mass density ([1]; 308.15 K) | speed of sound ([1]; 313.15 K) | mass density ([1]; 313.15 K) | speed of sound ([1]; 318.15 K) | mass density ([1]; 318.15 K) | speed of sound ([1]; 323.15 K) | mass density ([1]; 323.15 K) | refractive index ([2]; 303.15 K) | refractive index ([2]; 308.15 K) | refractive index ([2]; 313.15 K) | refractive index ([2]; 318.15 K) | refractive index ([2]; 323.15 K) | further results |
| --- | --- | --- | --- | --- | --- | --- | --- | --- | --- | --- | --- | --- | --- | --- | --- | --- |
| COC(=O)OC [dimethyl carbonate] | 1177.3 ± 1.1 m/s | 1056.8 ± 2 kg/m3 | 1155.6 ± 1.1 m/s | 1050.2 ± 2 kg/m3 | 1134.2 ± 1.1 m/s | 1043.5 ± 2 kg/m3 | 1113.1 ± 1.1 m/s | 1036.8 ± 2 kg/m3 | 1092.2 ± 1.1 m/s | 1030 ± 2 kg/m3 | 1.3648 ± 0.001 | 1.3629 ± 0.001 | 1.3626 ± 0.001 | 1.3601 ± 0.001 | 1.3586 ± 0.001 |  |
| COC(=O)OC [dimethyl carbonate] + CCCC[n+]1ccn(C)c1.O=S(=O)([N-]S(=O)(=O)C(F)(F)F)C(F)(F)F |  |  |  |  |  |  |  |  |  |  |  |  |  |  |  | speed of sound ([3]; 303.15 K): 1177.3 ± 1.1 m/s; mass density ([3]; 303.15 K): 1056.8 ± 2 kg/m3; speed of sound ([3]; 308.15 K): 1155.6 ± 1.1 m/s; mass density ([3]; 308.15 K): 1050.2 ± 2 kg/m3; speed of sound ([3]; 313.15 K): 1134.2 ± 1.1 m/s; mass density ([3]; 313.15 K): 1043.5 ± 2 kg/m3; speed of sound ([3]; 318.15 K): 1113.1 ± 1.1 m/s; mass density ([3]; 318.15 K): 1036.8 ± 2 kg/m3; speed of sound ([3]; 323.15 K): 1092.2 ± 1.1 m/s; mass density ([3]; 323.15 K): 1030 ± 2 kg/m3; refractive index ([4]; 303.15 K): 1.3648 ± 0.001; refractive index ([4]; 308.15 K): 1.3629 ± 0.001; refractive index ([4]; 313.15 K): 1.3626 ± 0.001; refractive index ([4]; 318.15 K): 1.3601 ± 0.001; refractive index ([4]; 323.15 K): 1.3586 ± 0.001 |
| CCCC[n+]1ccn(C)c1.O=S(=O)([N-]S(=O)(=O)C(F)(F)F)C(F)(F)F | 1216.8 ± 1.4 m/s | 1428.9 ± 2.1 kg/m3 | 1205.8 ± 1.4 m/s | 1424.1 ± 2.1 kg/m3 | 1195 ± 1.4 m/s | 1419.4 ± 2.1 kg/m3 | 1184.2 ± 1.4 m/s | 1414.6 ± 2.1 kg/m3 | 1173.6 ± 1.4 m/s | 1409.9 ± 2.1 kg/m3 | 1.4245 ± 0.0011 | 1.4231 ± 0.0011 | 1.421 ± 0.0011 | 1.4195 ± 0.0011 | 1.4173 ± 0.0011 |  |
